# Measured values reported in patent US20250340537A1, “PHARMACEUTICALLY ACTIVE COMPOUNDS, COMPOSITIONS, AND METHODS FOR MODULATING PENDRIN” (ARBORMED Co., Ltd., priority 2022, published 2025).
# System: pendrin in patient nasal epithelial cells
# Assay: Patient-derived cell-based (PDC) assay, immunofluorescence staining of pendrin
# Parameters: species or system human
# Conditions: 10 μM; for Pendrin expression on epithelial cell membrane, immunofluorescence staining: FIG. 2A; for Mean fluorescence intensity (pendrin expression intensity) vs vehicle and IL-4 groups: FIG. 2B, *p<0.05
# Method: The experimental approach is grounded in a multi-step process aimed at investigating the effects of drug treatments on nasal epithelial cells. Initially, nasal tissues are collected and processed to isolate epithelial cells through tissue lysis. These cells are then cultured and subjected to Air-Liquid Interface (ALI) conditions for an extended period. Following this, drug treatments involving human IL-4 and Pendrin corrector drugs are administered, and protein harvesting is conducted for subsequent analysis. The expression of the pendrin antibody ‘hR1 (YONSEI ENT Choi lab.)’ is confirmed through Western blot analysis after drug treatments. Additionally, immunofluorescence staining is performed on Transwell membranes from different drug concentrations, and the resulting cryosections are subjected to confocal microscopy using the primary antibody ‘hR2 (YONSEI ENT Choi lab.)’. This comprehensive methodology allows for the visualization and analysis of pendrin expression in both basal and apical regions of nasal epithelial cells, providing insights into the impact of drug treatment on the targeted cellular components.
# Nasal tissue were collected from patients and placed in DMEM:F12 (Lonza Cat No. 12-719F) supplemented with 1% penicillin-streptomycin in Transfer media. After removing red blood cells with PBS, tissues were subjected to tissue lysis with 1% protease in transfer media at 37° C. for 1 hour, resulting in the isolation of epithelial cells.
# The obtained epithelial cells were conventionally cultured up to passage 1 in BEGM Bulletkit (Lonza Cat No. CC3170) supplemented with BSA 150 mg/ml and EGF (BD Cat No. 354001). Once reaching approximately 90% confluency, cells were detached using 0.25% Trypsin EDTA and seeded onto 12-well Transwell plates (Costar Cat No. 3450) in a 1:1 mixture of DMEM media (Lonza Cat No. 12-707F) and BEGM Bulletkit supplemented media for Air-Liquid Interface (ALI) culture.
# ALI culture was initiated by adding 1 ml of media to the bottom and seeding 0.5 ml of cells on the membrane. When cells on the membrane reached 90% confluency, the bottom was filled with culture media supplemented with 50 nM Retinoic acid (RA, SIGMA Cat No. R2625), and ALI culture was performed for 7-14 days.
# Subsequent to ALI culture, cells were treated with human IL-4 at […] for 24 hours, followed by treatment with ‘Compound 9, Compound 18 and Compound 105’ Pendrin corrector drugs at concentrations of 0.1, 0.3, 1, 3, 10 μM for 24 hours. After drug treatment, cells attached to the Transwell membrane were harvested by scraping into protein buffer (iNtRON Cat No. 17081). Protein quantification ([…]) was performed for each sample and the expression of the pendrin antibody ‘hR1 (YONSEI ENT custom antibody)’ was confirmed through Western blot analysis.
# For immunofluorescence staining, Transwell membranes from each drug-treated concentration were fixed in 4% paraformaldehyde (PFA) at room temperature for 10 minutes. Subsequently, they were cut into three pieces using a microtome, embedded in OCT compound and processed in to 5 μm cryosections. Immunostaining using the primary antibody ‘hR2 (YONSEI ENT custom antibody)’ was conducted, and the pendrin expression in the basal and apical regions of epithelial cells was visualized using confocal microscopy (Carl Zeiss, LSM700).
compound,measurement,value
NC1=C(c2cncc(-c3ccc(O)c(O)c3)n2)C(=O)CN1CC1CCCC1 [Compound 18],"Pendrin expression on epithelial cell membrane, immunofluorescence staining",clear red fluorescence
same,Mean fluorescence intensity (pendrin expression intensity) vs vehicle and IL-4 groups,significant difference
COc1cc(-c2nccc(C3=C(N)N(CC4CCCC4)CC3=O)n2)ccc1O [Compound 105],"Pendrin expression on epithelial cell membrane, immunofluorescence staining",clear red fluorescence
same,Mean fluorescence intensity (pendrin expression intensity) vs vehicle and IL-4 groups,significant difference
NC1=C(c2cncc(-c3ccc(O)c(O)c3)n2)C(=O)CN1c1ccccc1Cl [Compound 9],"Pendrin expression on epithelial cell membrane, immunofluorescence staining",clear red fluorescence
same,Mean fluorescence intensity (pendrin expression intensity) vs vehicle and IL-4 groups,significant difference
